The values that follow are results of earlier work, collected in EP2637695B1, “OLMESARTAN FORMULATIONS” (Abdi Ibrahim Ilac Sanayi ve Ticaret Anonim Sirketi, priority 2010, dated 2012).

The conditions of series [1]: in humans.

Molecules are shown by their SMILES. Where two headings read alike, the source gives them in different places.

In the case of `CCCc1nc(C(C)(C)O)c(C(=O)OCc2oc(=O)oc2C)n1Cc1ccc(-c2ccccc2-c2nnn[nH]2)cc1` [Olmesartan medoxomil, (5-methyl-2-oxo-1,3-dioxolen-4-yl)rnethyl 4-(1-hydroxy-1-methylethyl)-2-propyl-1-{4-[2-(tetrazol-5-yl)phenyl]phenyl}methylimidazole-5-carboxylate], the “bioavailability (BA)” value in series [1] is given as “approximately 26%”. In addition, the solubility result was “insoluble” (in 17 hydrochloric acid); “sparingly soluble” (in strong acid); “soluble” (in strong base); “practically insoluble” (in water and in the pH range of 3 to 9).
